From patent US20240041042A1, “1-(PYRIDYL)-5-AZINYLPYRAZOLE DERIVATIVES, AND THEIR USE FOR CONTROL OF UNDESIRED PLANT GROWTH” (Bayer Aktiengesellschaft, priority 2020, published 2024)
Read-outs that look alike come from different tables or passages of the source.

Legend:
Type in all cases: in vivo
[1] = system: Avena fatua (AVEFA); experiment: Pre-emergence herbicidal action against AVEFA; conditions: visual scoring after about 3 weeks vs untreated controls
How it was run: (§1)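 Pre-emergence soil-surface spray of compound, formulated as wettable powder or emulsion concentrate, in aqueous suspension or emulsion with 0.5% additive (600 l/ha; rate 320 g/ha or less). Activity rated visually after roughly 3 weeks in the greenhouse as a percentage of untreated controls, 0% meaning no difference.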

[2] = system: Polygonum convolvulus (POLCO); experiment: Pre-emergence herbicidal action against POLCO
How it was run: as §1

[3] = system: Oryza sativa (ORYSA); conditions: crop plant compatibility
How it was run: (§2)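 Foliar application at the one-leaf stage: WP/EC formulation, 0.5% additive, 600 l/ha water. Greenhouse-grown in sandy loam. Endpoint is visual % injury relative to untreated controls at about 3 weeks.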

[4] = system: Zea mays (ZEAMX); conditions: 20 g/ha, ZEAMX, effect in comparison to untreated controls
How it was run: as §2

[5] = system: Verconica persica (VERPE); experiment: Post-emergence herbicidal action against VERPE
How it was run: (§3)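 Greenhouse plants sprayed at the one-leaf stage, 2–3 weeks after sowing, with WP or EC formulations plus 0.5% additive at 600 l/ha water. Activity rated visually after about 3 weeks versus untreated controls (100% = dead, 0% = like control), at 320 g/ha or lower.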

[6] = system: Pharbitis purpurea (PHBPU); experiment: Pre-emergence herbicidal action against PHBPU; conditions: dosage 320 g/ha
How it was run: as §1

[7] = system: Echinochloa crus-galli (ECHCG); experiment: Post-emergence herbicidal action against ECHCG
How it was run: as §3

[8] = system: Verconica persica (VERPE); experiment: Pre-emergence herbicidal action against VERPE
How it was run: as §1

[9] = system: Amaranthus retroflexus (AMARE); experiment: Post-emergence herbicidal action against AMARE
How it was run: as §3

[10] = system: Lolium rigidum (LOLRI); experiment: Pre-emergence herbicidal action against LOLRI
How it was run: as §1

[11] = system: Amaranthus retroflexus (AMARE); experiment: Pre-emergence herbicidal action against AMARE; conditions: visual scoring after about 3 weeks vs untreated controls
How it was run: as §1

[12] = system: Setaria viridis (SETVI); experiment: Pre-emergence herbicidal action against SETVI
How it was run: as §1

[13] = system: Alopecurus myosuroides (ALOMY); experiment: Pre-emergence herbicidal action against ALOMY; conditions: scored visually after about 3 weeks, 100% = plants have died
How it was run: as §1

[14] = system: Viola tricolor (VIOTR); experiment: Pre-emergence herbicidal action against VIOTR; conditions: 320 g/ha, Viola tricolor
How it was run: as §1

[15] = system: Echinochloa crus-galli (ECHCG); experiment: Pre-emergence herbicidal action against ECHCG; conditions: dosage 320 g/ha
How it was run: as §1

[16] = system: Alopecurus myosuroides (ALOMY); experiment: Post-emergence herbicidal action against ALOMY; conditions: visual rating about 3 weeks after treatment vs untreated controls (100% = plants have died, 0% = like control plants)
How it was run: as §3

[17] = system: Matricaria inodora (MATIN); experiment: Post-emergence herbicidal action against MATIN
Description: Seeds of monocotyledonous and dicotyledonous weeds and crop plants are placed in sandy loam in plastic or organic planting pots, covered with soil and cultivated in a greenhouse under controlled growth conditions. 2 to 3 weeks after sowing, the test plants are treated at the one-leaf stage. The compounds of the invention, formulated in the form of wettable powders (WP) or as emulsion concentrates (EC), are then sprayed onto the green parts of the plants as aqueous suspension or emulsion with addition of 0.5% additive at a water application rate of 600 l/ha (converted). After the test plants have been kept in the greenhouse under optimum growth conditions for about 3 weeks, the activity of the preparations is rated visually in comparison to untreated controls. For example, 100% activity=the plants have died, 0% activity=like control plants.
Tables B1 to B13 below show the effects of selected compounds of the general formula (I) according to Table 1 on various harmful plants and at an application rate corresponding to 320 g/ha or lower, which were obtained by the experimental procedure mentioned above. The appendices “a”, “b” and “c” give differentiation by dosage used with otherwise the same harmful plants tested.

[18] = system: Matricaria inodora (MATIN); experiment: Pre-emergence herbicidal action against MATIN; conditions: dosage 320 g/ha
How it was run: as §1

[19] = system: Avena fatua (AVEFA); experiment: Post-emergence herbicidal action against AVEFA; conditions: visual rating about 3 weeks after treatment
How it was run: as §3

[20] = system: Lolium rigidum (LOLRI); experiment: Post-emergence herbicidal action against LOLRI; conditions: dosage 320 g/ha
How it was run: as §3

[21] = system: Setaria viridis (SETVI); experiment: Post-emergence herbicidal action against SETVI
How it was run: as §3

[22] = system: Viola tricolor (VIOTR); experiment: Post-emergence herbicidal action against VIOTR; conditions: 320 g/ha
How it was run: as §3

[23] = system: Pharbitis purpurea (PHBPU); experiment: Post-emergence herbicidal action against PHBPU
How it was run: as §3

[24] = 80 g/ha, visual rating about 3 weeks after treatment vs untreated controls (100% = plants have died, 0% = like control plants)

SMILES | Pre-emergence action against AVEFA in % ([1]; 320 g/ha) [%] | Pre-emergence action against POLCO in % ([2]; dosage 320 g/ha) [%] | Post-emergence action against VERPE in % ([5]; dosage 80 g/ha) [%] | Pre-emergence action against PHBPU in % [6] [%] | Post-emergence action against ECHCG in % ([7]; dosage 80 g/ha) [%] | Pre-emergence action against VERPE in % ([8]; dosage 320 g/ha) [%] | Post-emergence action against AMARE in % [9, 24] [%] | Pre-emergence action against LOLRI in % ([10]; dosage 320 g/ha) [%] | Pre-emergence action against AMARE in % ([11]; 80 g/ha) [%] | Pre-emergence action against AMARE in % ([11]; 320 g/ha) [%] | Pre-emergence action against SETVI in % ([12]; dosage 320 g/ha) [%] | Pre-emergence action against ALOMY ([13]; 80 g/ha) [%] | Pre-emergence action against ALOMY ([13]; 320 g/ha) [%] | Pre-emergence action against VIOTR in % [14] [%] | Pre-emergence action against ECHCG in % [15] [%] | Post-emergence action against ALOMY in % ([16]; 80 g/ha) [%] | Post-emergence action against MATIN in % ([17]; dosage 80 g/ha) [%] | Pre-emergence action against MATIN in % [18] [%] | also measured
O=C(O)COc1nn(-c2ccccn2)c(-c2ccc(F)nc2)c1Cl [Example I-98] | 80 | 90 | 80 | 90 | 80 | 100 | 80 | 100 | 100 | 100 | 100 | 90 | 100 | 100 | 100 | 90 | 80 | 90 | Post-emergence action against ORYSA in % ([3]; 20 g/ha, effect vs untreated controls): 10%; Post-emergence action against ZEAMX in % (crop plant compatibility) [4]: 10%; Post-emergence action against AVEFA in % ([19]; 80 g/ha): 80%
C=C(COC(=O)COc1nn(-c2ccccn2)c(-c2ccc(F)nc2)c1Br)C(=O)OC [Example I-370] | 90 | 100 | 90 | 90 | 80 | 100 | 80 | 100 | 100 | 100 | 100 | 80 | 100 | 100 | 100 | 100 | 80 | 100 | Pre-emergence action against AVEFA in % ([1]; 80 g/ha): 90%; Pre-emergence action against POLCO in % ([2]; dosage 80 g/ha): 80%; Post-emergence action against ORYSA in % ([3]; 80 g/ha, effect in comparison to untreated controls): 0%; Post-emergence action against VERPE in % ([5]; 320 g/ha, VERPE): 90%; Post-emergence action against ECHCG in % ([7]; dosage 320 g/ha): 80%; Pre-emergence action against VERPE in % ([8]; dosage 80 g/ha): 90%; Post-emergence action against AMARE in % ([9]; 320 g/ha, visual rating about 3 weeks after treatment): 80%; Pre-emergence action against LOLRI in % ([10]; dosage 80 g/ha): 90%; Pre-emergence action against SETVI in % ([12]; dosage 80 g/ha): 100%; Post-emergence action against ALOMY in % ([16]; 320 g/ha): 100%; Post-emergence action against LOLRI in % [20]: 90%; Post-emergence action against SETVI in % ([21]; dosage 80 g/ha): 80%; Post-emergence action against SETVI in % ([21]; dosage 320 g/ha): 80%; Post-emergence action against MATIN in % ([17]; dosage 320 g/ha): 80%; Post-emergence action against AVEFA in % ([19]; 320 g/ha): 90%; Post-emergence action against VIOTR in % [22]: 80%; Post-emergence action against PHBPU in % ([23]; dosage 80 g/ha): 80%; Post-emergence action against PHBPU in % ([23]; dosage 320 g/ha): 90%
